According to the kinase profiling compilation of Christmann-Franck et al. (2016):

Experiments:
CSNK2A2 (human) = CSNK2A2 (human) (UniProt P19784)
NEK7 (human) = NEK7 (human) (UniProt Q8TDX7)
SIK3 (human) = SIK3 (human) (UniProt Q9Y2K2)
MAP2K2 (human) = MAP2K2 (human) (UniProt P36507)
CAMK1D (human) = CAMK1D (human) (UniProt Q8IU85)
MARK2 (human) = MARK2 (human) (UniProt Q7KZI7)
RIPK2 (human) = RIPK2 (human) (UniProt O43353)
BRAF (human) = BRAF (human) (UniProt P15056)
EPHA4 (human) = EPHA4 (human) (UniProt P54764)

Measured: IC50

EPHA4 (human), sequence (P54764 whole entry, looked up): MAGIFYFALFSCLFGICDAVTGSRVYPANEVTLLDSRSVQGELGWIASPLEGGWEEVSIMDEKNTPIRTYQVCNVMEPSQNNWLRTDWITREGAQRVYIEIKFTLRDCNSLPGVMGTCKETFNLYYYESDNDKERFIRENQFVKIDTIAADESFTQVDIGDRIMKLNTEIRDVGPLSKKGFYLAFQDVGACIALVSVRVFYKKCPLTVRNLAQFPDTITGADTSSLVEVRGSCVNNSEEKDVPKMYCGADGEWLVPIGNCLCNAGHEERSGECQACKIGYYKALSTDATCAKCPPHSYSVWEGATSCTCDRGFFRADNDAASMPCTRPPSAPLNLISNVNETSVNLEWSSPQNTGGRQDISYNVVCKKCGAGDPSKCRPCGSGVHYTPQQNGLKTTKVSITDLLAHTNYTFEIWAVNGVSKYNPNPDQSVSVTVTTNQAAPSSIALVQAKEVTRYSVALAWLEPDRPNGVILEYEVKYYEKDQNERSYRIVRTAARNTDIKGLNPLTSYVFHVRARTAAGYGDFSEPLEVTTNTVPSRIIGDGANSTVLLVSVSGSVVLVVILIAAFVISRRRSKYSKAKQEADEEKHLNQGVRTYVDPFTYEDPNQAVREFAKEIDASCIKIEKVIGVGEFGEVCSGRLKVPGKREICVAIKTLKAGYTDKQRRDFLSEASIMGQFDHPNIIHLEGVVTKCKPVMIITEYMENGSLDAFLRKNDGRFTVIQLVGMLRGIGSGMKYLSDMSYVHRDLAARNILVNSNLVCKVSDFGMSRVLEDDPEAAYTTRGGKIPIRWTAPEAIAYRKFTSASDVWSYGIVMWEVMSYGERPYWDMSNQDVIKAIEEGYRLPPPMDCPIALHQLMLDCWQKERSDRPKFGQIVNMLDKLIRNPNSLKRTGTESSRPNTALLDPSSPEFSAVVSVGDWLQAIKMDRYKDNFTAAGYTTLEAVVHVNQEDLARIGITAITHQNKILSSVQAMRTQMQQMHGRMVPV
MARK2 (human), sequence (Q7KZI7 whole entry, looked up): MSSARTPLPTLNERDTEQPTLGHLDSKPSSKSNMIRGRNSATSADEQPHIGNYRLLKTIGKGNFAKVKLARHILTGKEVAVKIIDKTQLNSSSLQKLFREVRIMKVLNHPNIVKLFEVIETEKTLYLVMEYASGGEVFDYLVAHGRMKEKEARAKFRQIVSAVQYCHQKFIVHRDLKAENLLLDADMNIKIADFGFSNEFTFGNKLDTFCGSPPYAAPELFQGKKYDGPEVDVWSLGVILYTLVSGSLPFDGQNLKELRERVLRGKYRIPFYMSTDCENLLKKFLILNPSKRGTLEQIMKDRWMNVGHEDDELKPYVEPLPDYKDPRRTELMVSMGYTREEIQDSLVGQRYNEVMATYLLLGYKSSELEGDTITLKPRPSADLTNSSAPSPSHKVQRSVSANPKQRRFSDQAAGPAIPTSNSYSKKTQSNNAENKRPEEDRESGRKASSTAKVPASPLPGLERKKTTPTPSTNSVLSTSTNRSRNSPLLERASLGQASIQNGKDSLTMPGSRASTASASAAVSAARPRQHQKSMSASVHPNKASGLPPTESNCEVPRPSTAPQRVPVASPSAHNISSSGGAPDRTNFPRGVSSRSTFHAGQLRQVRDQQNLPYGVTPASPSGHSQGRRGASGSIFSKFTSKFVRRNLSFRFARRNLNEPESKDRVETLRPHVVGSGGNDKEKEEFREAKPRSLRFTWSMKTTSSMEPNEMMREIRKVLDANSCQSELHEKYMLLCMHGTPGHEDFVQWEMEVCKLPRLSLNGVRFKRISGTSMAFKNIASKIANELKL
BRAF (human), sequence (P15056 whole entry, looked up): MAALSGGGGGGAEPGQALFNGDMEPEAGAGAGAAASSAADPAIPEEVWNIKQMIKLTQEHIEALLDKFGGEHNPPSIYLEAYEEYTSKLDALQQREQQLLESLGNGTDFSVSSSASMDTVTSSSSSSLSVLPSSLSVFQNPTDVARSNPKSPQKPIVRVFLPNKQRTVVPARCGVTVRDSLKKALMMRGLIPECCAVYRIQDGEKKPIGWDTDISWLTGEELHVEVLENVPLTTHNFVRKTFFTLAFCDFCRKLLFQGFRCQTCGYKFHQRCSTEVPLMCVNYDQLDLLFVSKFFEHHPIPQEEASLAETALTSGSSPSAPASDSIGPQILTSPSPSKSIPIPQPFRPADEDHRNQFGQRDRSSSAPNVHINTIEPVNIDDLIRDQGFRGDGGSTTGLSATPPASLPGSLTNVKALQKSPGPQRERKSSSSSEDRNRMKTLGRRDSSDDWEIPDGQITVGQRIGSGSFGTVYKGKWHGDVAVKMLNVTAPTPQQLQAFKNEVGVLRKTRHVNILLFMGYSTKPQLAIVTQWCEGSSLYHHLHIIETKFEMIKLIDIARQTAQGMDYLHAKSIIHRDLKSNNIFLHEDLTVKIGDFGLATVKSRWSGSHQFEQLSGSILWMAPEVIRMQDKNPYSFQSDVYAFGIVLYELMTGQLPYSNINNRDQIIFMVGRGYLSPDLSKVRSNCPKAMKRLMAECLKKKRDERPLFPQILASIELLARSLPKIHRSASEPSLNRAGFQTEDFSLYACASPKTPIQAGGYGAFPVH
MAP2K2 (human), sequence (P36507 whole entry, looked up): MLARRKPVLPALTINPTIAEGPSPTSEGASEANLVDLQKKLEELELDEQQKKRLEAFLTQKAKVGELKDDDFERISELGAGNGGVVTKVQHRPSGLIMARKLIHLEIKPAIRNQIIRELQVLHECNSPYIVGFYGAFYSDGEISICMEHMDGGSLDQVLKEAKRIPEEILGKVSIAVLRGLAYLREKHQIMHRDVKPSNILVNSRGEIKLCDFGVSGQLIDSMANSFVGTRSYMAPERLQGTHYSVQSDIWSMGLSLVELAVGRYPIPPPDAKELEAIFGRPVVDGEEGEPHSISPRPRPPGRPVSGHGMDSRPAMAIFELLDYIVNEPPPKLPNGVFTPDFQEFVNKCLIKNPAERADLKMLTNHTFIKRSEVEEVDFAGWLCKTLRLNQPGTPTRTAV
CSNK2A2 (human), sequence (P19784 whole entry, looked up): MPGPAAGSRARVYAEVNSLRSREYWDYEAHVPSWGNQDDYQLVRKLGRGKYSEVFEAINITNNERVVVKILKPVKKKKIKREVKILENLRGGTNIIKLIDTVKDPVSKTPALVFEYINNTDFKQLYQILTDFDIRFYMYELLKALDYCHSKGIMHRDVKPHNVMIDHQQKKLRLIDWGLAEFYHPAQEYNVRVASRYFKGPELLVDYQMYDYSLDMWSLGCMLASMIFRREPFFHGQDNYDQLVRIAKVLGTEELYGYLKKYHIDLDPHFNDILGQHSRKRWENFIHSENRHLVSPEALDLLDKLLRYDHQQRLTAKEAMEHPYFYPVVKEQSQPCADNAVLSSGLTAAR
NEK7 (human), sequence (Q8TDX7 whole entry, looked up): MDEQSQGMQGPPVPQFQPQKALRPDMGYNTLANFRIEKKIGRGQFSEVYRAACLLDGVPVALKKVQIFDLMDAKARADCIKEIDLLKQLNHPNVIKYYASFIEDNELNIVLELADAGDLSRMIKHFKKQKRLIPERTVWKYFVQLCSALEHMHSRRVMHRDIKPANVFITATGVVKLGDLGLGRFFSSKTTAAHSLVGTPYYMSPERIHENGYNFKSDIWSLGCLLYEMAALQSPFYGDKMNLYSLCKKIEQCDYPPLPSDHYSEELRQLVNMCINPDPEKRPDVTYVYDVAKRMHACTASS
SIK3 (human), sequence (Q9Y2K2 whole entry, looked up): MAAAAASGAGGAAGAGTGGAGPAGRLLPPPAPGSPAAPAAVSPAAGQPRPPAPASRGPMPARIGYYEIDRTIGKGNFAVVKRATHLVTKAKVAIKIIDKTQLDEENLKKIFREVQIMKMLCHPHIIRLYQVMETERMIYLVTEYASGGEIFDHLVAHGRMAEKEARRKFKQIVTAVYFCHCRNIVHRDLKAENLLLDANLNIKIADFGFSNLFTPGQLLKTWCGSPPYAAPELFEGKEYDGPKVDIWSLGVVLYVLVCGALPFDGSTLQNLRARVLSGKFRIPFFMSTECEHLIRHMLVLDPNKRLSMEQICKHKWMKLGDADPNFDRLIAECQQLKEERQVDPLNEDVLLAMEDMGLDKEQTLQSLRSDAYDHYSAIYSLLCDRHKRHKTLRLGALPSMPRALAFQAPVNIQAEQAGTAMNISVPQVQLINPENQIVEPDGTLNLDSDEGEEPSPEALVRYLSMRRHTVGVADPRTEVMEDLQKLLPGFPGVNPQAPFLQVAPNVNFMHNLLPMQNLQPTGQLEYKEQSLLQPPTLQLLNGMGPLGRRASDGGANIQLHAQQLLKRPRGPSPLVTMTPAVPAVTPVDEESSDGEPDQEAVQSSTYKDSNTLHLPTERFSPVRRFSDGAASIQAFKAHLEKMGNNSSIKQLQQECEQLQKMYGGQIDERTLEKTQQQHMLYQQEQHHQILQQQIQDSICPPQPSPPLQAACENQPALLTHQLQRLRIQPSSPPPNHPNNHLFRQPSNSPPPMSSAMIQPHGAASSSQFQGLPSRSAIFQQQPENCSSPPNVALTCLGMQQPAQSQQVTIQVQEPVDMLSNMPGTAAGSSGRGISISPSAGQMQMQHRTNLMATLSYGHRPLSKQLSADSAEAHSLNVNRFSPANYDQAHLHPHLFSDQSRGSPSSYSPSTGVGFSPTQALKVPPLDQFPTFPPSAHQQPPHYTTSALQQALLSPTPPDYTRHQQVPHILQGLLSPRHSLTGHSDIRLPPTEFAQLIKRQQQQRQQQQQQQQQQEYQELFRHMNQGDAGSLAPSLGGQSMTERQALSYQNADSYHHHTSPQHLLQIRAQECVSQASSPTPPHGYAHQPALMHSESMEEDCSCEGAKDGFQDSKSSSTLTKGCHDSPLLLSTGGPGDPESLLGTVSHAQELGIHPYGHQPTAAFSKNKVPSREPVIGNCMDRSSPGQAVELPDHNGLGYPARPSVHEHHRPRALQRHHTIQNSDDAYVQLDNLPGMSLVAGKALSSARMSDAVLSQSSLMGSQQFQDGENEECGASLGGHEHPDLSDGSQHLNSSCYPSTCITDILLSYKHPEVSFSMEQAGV

CN1CC[C@H](c2c(O)cc(O)c3c(=O)cc(-c4ccccc4Cl)oc23)[C@H](O)C1
> 10 µM: all assays above
